By EC50 is commonly meant the concentration at which the effect is half-maximal.

Experimental findings from patent US20100331297A1, “MODULATION OF PROTEIN TRAFFICKING” (FOLDRX PHARMACEUTICALS, INC., priority 2007, published 2010) are described below.

SMILES strings stand for the structures.

Sequence of ΔF508 CFTR (P13569 with tags, fused parts or gaps DEL508-508): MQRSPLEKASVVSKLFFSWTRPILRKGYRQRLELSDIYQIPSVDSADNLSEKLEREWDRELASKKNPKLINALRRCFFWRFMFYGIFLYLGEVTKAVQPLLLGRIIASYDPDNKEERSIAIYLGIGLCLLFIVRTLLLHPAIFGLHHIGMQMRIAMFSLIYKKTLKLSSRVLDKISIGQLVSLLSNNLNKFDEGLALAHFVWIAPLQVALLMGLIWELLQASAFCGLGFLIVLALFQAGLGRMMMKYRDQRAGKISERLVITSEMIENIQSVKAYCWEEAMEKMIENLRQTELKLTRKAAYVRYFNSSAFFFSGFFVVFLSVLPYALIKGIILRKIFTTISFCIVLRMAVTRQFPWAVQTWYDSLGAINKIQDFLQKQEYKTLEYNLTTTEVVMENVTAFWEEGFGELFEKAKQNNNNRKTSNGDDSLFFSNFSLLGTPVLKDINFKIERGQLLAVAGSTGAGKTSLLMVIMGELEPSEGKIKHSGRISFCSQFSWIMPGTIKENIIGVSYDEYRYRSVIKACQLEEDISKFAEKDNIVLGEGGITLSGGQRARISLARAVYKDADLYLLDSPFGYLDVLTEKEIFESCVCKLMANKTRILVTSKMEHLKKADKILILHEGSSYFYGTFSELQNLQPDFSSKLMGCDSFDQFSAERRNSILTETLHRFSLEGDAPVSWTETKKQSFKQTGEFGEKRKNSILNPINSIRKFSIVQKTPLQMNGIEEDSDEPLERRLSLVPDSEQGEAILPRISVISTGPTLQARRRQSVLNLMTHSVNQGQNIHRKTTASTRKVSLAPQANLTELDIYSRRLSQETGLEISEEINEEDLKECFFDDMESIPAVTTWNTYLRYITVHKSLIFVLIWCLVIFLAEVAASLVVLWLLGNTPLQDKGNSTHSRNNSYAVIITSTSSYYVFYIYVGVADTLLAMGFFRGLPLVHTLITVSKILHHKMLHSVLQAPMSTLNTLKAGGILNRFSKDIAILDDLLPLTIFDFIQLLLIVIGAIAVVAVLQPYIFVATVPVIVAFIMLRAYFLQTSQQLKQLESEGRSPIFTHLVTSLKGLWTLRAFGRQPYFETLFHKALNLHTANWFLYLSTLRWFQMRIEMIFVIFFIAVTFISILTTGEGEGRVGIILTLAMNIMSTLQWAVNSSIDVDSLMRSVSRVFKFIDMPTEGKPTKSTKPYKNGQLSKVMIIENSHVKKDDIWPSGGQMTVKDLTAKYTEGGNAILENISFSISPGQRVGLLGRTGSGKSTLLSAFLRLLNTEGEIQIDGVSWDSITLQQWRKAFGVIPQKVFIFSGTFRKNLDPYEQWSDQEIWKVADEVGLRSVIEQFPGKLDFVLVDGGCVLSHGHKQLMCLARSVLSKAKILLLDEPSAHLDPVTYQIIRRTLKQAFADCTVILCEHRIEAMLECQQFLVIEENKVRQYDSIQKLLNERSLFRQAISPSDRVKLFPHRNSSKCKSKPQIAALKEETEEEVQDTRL

This assay addresses ΔF508 CFTR (Homo sapiens, UniProt P13569, DEL508-508). The assay can be described thus: Corrector activity, YFP halide (iodide) quenching assay in FRT cells expressing ΔF508 CFTR. Format: cell-based. Also on record: expressed in transfected cells; host or cells: Fischer rat thyroid (FRT) cells. Particulars: FRT cells ΔF508 CFTR/YFP, 24 hours with compound at 37° C., forskolin and genistein; read-out: Corrector EC50. How it is done: Fisher rat thyroid (FRT) cells stably expressing ΔF508 CFTR and a halide-sensitive variant of yellow fluorescent protein (YFP) were seeded into microtiter plates and allowed to grow for 24 hours at 37° C. and 5% CO2. See Pedemonte et al., J. Clin. Invest. […] Compounds in dimethylsulfoxide (DMSO) solution were pre-diluted into cell culture medium, the medium was removed from cells, and then fresh medium containing the compounds was applied. The cells were incubated for a further 24 hours at 37° C. and 5% CO2.
Activity of CFTR was assayed by removing the medium, washing the cell monolayer with phosphate-buffered saline solution (PBS), and then applying PBS containing forskolin and genistein. After 30 min incubation at 37° C., the plates were placed in a fluorescence plate reader equipped with a reagent injector.
Corrector activity was calculated as follows. Normalized endpoint fluorescence was calculated by dividing the endpoint fluorescence after iodide injection by the initial fluorescence reading and multiplication by 100. Corrector EC50 values were calculated from the activity vs. concentration data using a 4-parameter log fit. The bottom of the curve was constrained to zero activity (DMSO control) while the slope, EC50, and top of the curve were fitted to the data. The EC50 was determined as the concentration that corresponds to the inflection point of the fitted curve.
`CCNC(=O)n1nc(-c2ccc(Cl)cc2)c2c(N)ncnc21` [Compound No. 213, 4-Amino-3-(4-chloro-phenyl)-pyrazolo[3,4-d]pyrimidine-1-carboxylic acid ethylamide]: the EC50 fell in the range of 5 to 10 µM.

With `Nc1ncnc2c1c(Oc1cccc(Cl)c1)nn2C1CCCC1` [Compound No. 221, 3-(3-Chloro-phenoxy)-1-cyclopentyl-1H-pyrazolo[3,4-d]pyrimidin-4-ylamine], the concentration giving a half-maximal response (EC50) is greater than 15 µM.

`CCn1nc(Nc2ccccc2)c2c(N)ncnc21` [Compound No. 223, 1-Ethyl-N^3-phenyl-1H-pyrazolo[3,4-d]pyrimidine-3,4-diamine]: the half-maximal effective concentration (EC50) is greater than 15 µM.

Regarding `Cc1ccc(-c2nn(-c3ncccn3)c3ncnc(N)c23)cc1` [Compound No. 229, 1-Pyrimidin-2-yl-3-p-tolyl-1H-pyrazolo[3,4-d]pyrimidin-4-ylamine], the EC50 was greater than 15 µM.

For the molecule `CC(C)(C)n1nc(-c2ccc(Cl)cc2)c2c(NC(=O)Nc3ccccc3)ncnc21` [Compound No. 230, 1-[1-tert-Butyl-3-(4-chloro-phenyl)-1H-pyrazolo[3,4-d]pyrimidin-4-yl]-3-phenyl-urea], the concentration for a half-maximal effect (EC50) was greater than 15 µM.

In the case of `CN(C)/C=N/c1ncnc2c1c(-c1ccc(Cl)cc1)nn2C(C)(C)C` [Compound No. 232, N′-[1-tert-Butyl-3-(4-chloro-phenyl)-1H-pyrazolo[3,4-d]pyrimidin-4-yl]-N,N-dimethyl-formamidine], the half-maximal effective concentration (EC50) is greater than 15 µM.

On to `Cc1ccc(-c2nn(C(C)(C)C)c3ncnc(Nc4ncccn4)c23)cc1` [Compound No. 234, (1-tert-Butyl-3-p-tolyl-1H-pyrazolo[3,4-d]pyrimidin-4-yl)-pyrimidin-2-yl-amine], for which the EC50 is greater than 15 µM.

With `CCn1nc(N(C)c2ccccc2)c2c(N)ncnc21` [Compound No. 248, 1-Ethyl-N^3-methyl-N^3-phenyl-1H-pyrazolo[3,4-d]pyrimidine-3,4-diamine], the EC50 was greater than 15 µM.

In the case of `Nc1ncnc2c1c(Nc1ccccc1)nn2C1CCC1` [Compound No. 253, 1-Cyclobutyl-N^3-phenyl-1H-pyrazolo[3,4-d]pyrimidine-3,4-diamine], the 50% effective concentration (EC50) is greater than 15 µM.

Take `CC(=O)N(C)c1ncnc2c1c(-c1ccc(Cl)cc1)nn2C(C)(C)C` [Compound No. 259, N-[1-tert-Butyl-3-(4-chloro-phenyl)-1H-pyrazolo[3,4-d]pyrimidin-4-yl]-N-methyl-acetamide]: the concentration giving a half-maximal response (EC50) is greater than 15 µM.

For the molecule `CC(C)(C)n1nc(-c2nc3ccccc3o2)c2c(N)ncnc21` [Compound No. 355, 3-Benzooxazol-2-yl-1-tert-butyl-1H-pyrazolo[3,4-d]pyrimidin-4-ylamine], the EC50 was 2 to 5 µM.

Regarding `CC(C)(C)n1ncc2c(NC(=O)c3ccccc3)ncnc21` [Compound No. 388, N-(1-tert-Butyl-1H-pyrazolo[3,4-d]pyrimidin-4-yl)-benzamide], the EC50 is greater than 15 µM.

Consider `CC(C)(C)n1nc(-c2ccc(Cl)cc2)c2c(NC(=O)C(=O)c3ccccc3)ncnc21` [Compound No. 395, N-[1-tert-Butyl-3-(4-chloro-phenyl)-1H-pyrazolo[3,4-d]pyrimidin-4-yl]-2-oxo-2-phenyl-acetamide], for which the concentration giving a half-maximal response (EC50) lay in the range of 5 to 10 µM.

`CNC(=S)Nc1ncnc2c1c(-c1ccc(Cl)cc1)nn2C(C)(C)C` [Compound No. 397, 1-[1-tert-Butyl-3-(4-chloro-phenyl)-1H-pyrazolo[3,4-d]pyrimidin-4-yl]-3-methyl-thiourea]: the EC50 was greater than 15 µM.

As for `CCC(C)Cn1nc(-c2ccc(Cl)cc2)c2c(N)ncnc21` (centres unmarked) [compound 101], the EC50 was greater than 15 µM.

Consider `CC(=O)N(C(C)=O)c1ncnc2c1c(-c1ccc(F)cc1)nn2C(C)(C)C` [compound 117, N-Acetyl-N-[1-tert-butyl-3-(4-fluoro-phenyl)-1H-pyrazolo[3,4-d]pyrimidin-4-yl]-acetamide], for which the half-maximal effective concentration (EC50) was greater than 15 µM.

With `CC(=O)c1ccc(-c2nn(C(C)(C)C)c3ncnc(N)c23)cc1` [compound 125], the EC50 was greater than 15 µM.

For `CC(C)(C)n1nc(-c2ccc3ccccc3c2)c2c(N)ncnc21` [compound 129], the EC50 was 5 to 10 µM.

As for `CC(C)(C)n1nc(-c2ccc(O)c3ccccc23)c2c(N)ncnc21` [compound 164], the EC50 was greater than 15 µM.

Consider `COCCn1nc(-c2ccc(Cl)cc2)c2c(N)ncnc21` [compound 171], for which the EC50 was greater than 15 µM.

For `CC(=O)n1nc(-c2ccc(Cl)cc2)c2c(N)ncnc21` [compound 181, 1-[4-Amino-3-(4-chloro-phenyl)-pyrazolo[3,4-d]pyrimidin-1-yl]-ethanone], the EC50 is greater than 15 µM.

With `Nc1ncnc2c1c(-c1ccc(Cl)cc1)nn2C(=O)C1CC1` [compound 182], the EC50 lay within 5 to 10 µM.

On to `COC(=O)n1nc(-c2ccc(Cl)cc2)c2c(N)ncnc21` [compound 186, 4-Amino-3-(4-chloro-phenyl)-pyrazolo[3,4-d]pyrimidine-1-carboxylic acid methyl ester], for which the EC50 is greater than 15 µM.

With `CC(C)(C)C1N=C(c2ccc(Cl)cc2)c2c(NC(=O)C3CCC3)ncnc21` (centres unmarked) [compound 192], the 50% effective concentration (EC50) was in the range of 2 to 5 µM.

In the case of `CS(=O)(=O)n1nc(-c2ccc(Cl)cc2)c2c(N)ncnc21` [compound 203, 3-(4-Chloro-phenyl)-1-methanesulfonyl-1H-pyrazolo[3,4-d]pyrimidin-4-ylamine], the EC50 is greater than 15 µM.

With `CCn1cc(-c2ccc(Cl)cc2)c2c(N(C(C)=O)C(C)=O)ncnc21` [compound 211, N-Acetyl-N-[5-(4-chloro-phenyl)-7-ethyl-7H-pyrrolo[2,3-d]pyrimidin-4-yl]-acetamide], the EC50 was 2 to 5 µM.

For `Nc1ncnc2c1c(-c1ccc(Cl)cc1)nn2C(=O)Nc1ccccc1` [compound 214], the half-maximal effective concentration (EC50) is greater than 15 µM.

For `Nc1ncnc2c1c(-c1ccc(Cl)cc1)nn2C(=O)NCc1ccccc1` [compound 215], the EC50 was greater than 15 µM.

As to `CCn1nc(Sc2cccc(F)c2)c2c(N)ncnc21` [compound 219], the EC50 is 2 to 5 µM.

As for `CCn1nc([S+]([O-])c2ccccc2C)c2c(N)ncnc21` (centres unmarked) [compound 222], the EC50 is greater than 15 µM.

Turning to `CC(C)(C)n1nc(-c2ccc(Cl)cc2)c2c(NC(=O)NCc3ccccc3)ncnc21` [compound 231], the EC50 was greater than 15 µM.

`CC(C)(C)n1nc(-c2ccc(Cl)cc2)c2c(Nc3ncccn3)ncnc21` [compound 235]: the EC50 is greater than 15 µM.

`CCNC(=O)Nc1ncnc2c1c(-c1ccc(Cl)cc1)nn2C(C)(C)C` [compound 239]: the EC50 was greater than 15 µM.

As to `Nc1ncnc2c1c(-c1ccc(Cl)cc1)nn2CCc1ccccc1` [compound 243], the 50% effective concentration (EC50) is greater than 15 µM.

Turning to `CCn1nc(Sc2ccncc2)c2c(N)ncnc21` [compound 249], the EC50 was greater than 15 µM.

Consider `CCn1nc(Sc2cccc(O)c2)c2c(N)ncnc21` [compound 250], for which the EC50 is greater than 15 µM.

In the case of `Nc1ncnc2c1c(-c1ccc(Cl)cc1)nn2-c1ncccn1` [compound 251], the concentration for a half-maximal effect (EC50) was greater than 15 µM.

Take `CCn1nc([S+]([O-])c2ccc(F)cc2)c2c(N)ncnc21` (centres unmarked) [compound 254]: the concentration giving a half-maximal response (EC50) is greater than 15 µM.

As for `CCn1nc(Sc2ccc(C)cc2)c2c(N)ncnc21` [compound 255], the 50% effective concentration (EC50) was greater than 15 µM.

Regarding `CCn1nc(Sc2ccc(F)cc2F)c2c(N)ncnc21` [compound 258], the EC50 was greater than 15 µM.

In the case of `CCn1nc(Oc2cccc(Cl)c2)c2c(N)ncnc21` [compound 260], the EC50 was greater than 15 µM.
